Reference: patent US10662187B2, “Bruton's tyrosine kinase inhibitors” (Zibo Biopolar Changsheng Pharmaceutical Co. Ltd., priority 2016, dated 2020)

Target: BTK (Homo sapiens (Human), UniProt Q06187)
Test: Btk kinase assay (HTRF)
Assay type: biochemical
Conditions: [ATP]=80 μM, BTK=3.4 nM; read-out: BTK Inhibition
Description: Btk Kinase Assay and Other Kinases Assay Btk kinase activity was determined using a homogenous time resolved fluorescence (HTRF) methodology. Measurements were performed in a reaction volume of 15 μL using 384-well assay plates. Kinase enzyme, inhibitor, ATP and 1 μM peptide substrate were incubated in a reaction buffer compose of Hepes 50 mM (pH7.0), NaN3 0.02%, BSA 0.01%, Orthocanadate 0.1 mM. […] For each compound, enzyme activity as measured at various concentrations of compound, Negative control reactions were performed in the absence of inhibitor in two replicates and eight no enzyme controls were used to determine baseline fluorescence levels.

Chain of BTK (Q06187 whole entry, species assumed): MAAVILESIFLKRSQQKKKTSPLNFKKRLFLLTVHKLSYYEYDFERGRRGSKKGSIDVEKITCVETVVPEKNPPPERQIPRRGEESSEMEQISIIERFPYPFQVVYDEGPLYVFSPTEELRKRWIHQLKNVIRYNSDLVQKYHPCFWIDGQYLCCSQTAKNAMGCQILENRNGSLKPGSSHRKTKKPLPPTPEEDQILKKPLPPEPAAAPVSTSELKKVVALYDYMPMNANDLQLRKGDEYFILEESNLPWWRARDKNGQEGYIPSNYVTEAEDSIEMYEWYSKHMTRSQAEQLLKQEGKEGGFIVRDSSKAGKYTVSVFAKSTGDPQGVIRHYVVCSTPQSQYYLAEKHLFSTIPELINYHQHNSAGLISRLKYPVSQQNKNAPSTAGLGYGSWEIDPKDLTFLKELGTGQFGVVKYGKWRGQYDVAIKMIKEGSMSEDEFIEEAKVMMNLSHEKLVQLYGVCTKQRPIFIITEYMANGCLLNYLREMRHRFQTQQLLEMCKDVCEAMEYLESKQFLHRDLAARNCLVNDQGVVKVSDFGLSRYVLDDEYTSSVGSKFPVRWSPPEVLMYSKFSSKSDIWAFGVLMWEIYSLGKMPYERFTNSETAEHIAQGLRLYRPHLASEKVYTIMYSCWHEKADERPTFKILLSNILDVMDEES

IC50 | Compound
0.01 to 0.1 µM | C=CC(=O)N1CCC[C@@H](n2nc(-c3ccc(Oc4cccc(C)c4F)cc3)c3cnccc32)C1 [Compound 48, (R)-1-(3-(3-(4-(2-fluoro-3-methylphenoxy)phenyl)-1H-pyrazolo[4,3-c]pyridin-1-yl)piperidin-1-yl)prop-2-en-1-one]
0.01 to 0.1 µM | C=CC(=O)N1CC[C@@H](n2nc(-c3ccc(Oc4cccc(F)c4OC)cc3)c3cnccc32)C1 [Compound 49, (R)-1-(3-(3-(4-(3-fluoro-2-methoxyphenoxy)phenyl)-1H-pyrazolo[4,3-c]pyridin-1-yl)pyrrolidin-1-yl)prop-2-en-1-one]
0.01 to 0.1 µM | C=CC(=O)N1CCC[C@@H](n2nc(-c3ccc(Oc4cccc(F)c4OC)cc3)c3cnccc32)C1 [Compound 50, (R)-1-(3-(3-(4-(3-fluoro-2-methoxyphenoxy)phenyl)-1H-pyrazolo[4,3-c]pyridin-1-yl)piperidin-1-yl)prop-2-en-1-one]
0.01 to 0.1 µM | C=CC(=O)N1CCC[C@@H](n2nc(-c3ccc(Oc4ccccc4)c(F)c3)c3cnccc32)C1 [Compound 51, (R)-1-(3-(3-(3-fluoro-4-phenoxyphenyl)-1H-pyrazolo[4,3-c]pyridin-1-yl)piperidin-1-yl)prop-2-en-1-one]
0.01 to 0.1 µM | C=CC(=O)N1CC(n2nc(-c3ccc(Oc4ccccc4)cc3)c3cnccc32)C1 [Compound 52, 1-(3-(3-(4-phenoxyphenyl)-1H-pyrazolo[4,3-c]pyridin-1-yl)azetidin-1-yl)prop-2-en-1-one]
0.01 to 0.1 µM | C=CC(=O)N1CCCC(Cn2nc(-c3ccc(Oc4ccccc4)cc3)c3cnccc32)C1 (stereo not shown) [Compound 53, 1-(3-((3-(4-phenoxyphenyl)-1H-pyrazolo[4,3-c]pyridin-1-yl)methyl)piperidin-1-yl)prop-2-en-1-one]
0.01 to 0.1 µM | C=CC(=O)N1CC[C@@H](n2nc(-c3ccc(Oc4ccccc4)cc3)c3c(N)cccc32)C1 [Compound 54, (R)-1-(3-(4-amino-3-(4-phenoxyphenyl)-1H-indazol-1-yl)pyrrolidin-1-yl)prop-2-en-1-one]
0.01 to 0.1 µM | C=CC(=O)N1CCC[C@@H](n2nc(-c3ccc(Oc4ccccc4)cc3)c3c(N)cccc32)C1 [Compound 55, (R)-1-(3-(4-amino-3-(4-phenoxyphenyl)-1H-indazol-1-yl)piperidin-1-yl)prop-2-en-1-one]
0.01 to 0.1 µM | C=CC(=O)N1CCC[C@@H](n2nc(-c3ccc(Oc4cccc(Cl)c4C)cc3)c3cnccc32)C1 [Compound 56, (R)-1-(3-(3-(4-(3-chloro-2-methylphenoxy)phenyl)-1H-pyrazolo[4,3-c]pyridin-1-yl)piperidin-1-yl)prop-2-en-1-one]
0.01 to 0.1 µM | C=CC(=O)N1CCC[C@@H](n2nc(-c3ccc(Oc4cccc(OC)c4C)cc3)c3cnccc32)C1 [Compound 57, (R)-1-(3-(3-(4-(3-methoxy-2-methylphenoxy)phenyl)-1H-pyrazolo[4,3-c]pyridin-1-yl)piperidin-1-yl)prop-2-en-1-one]
0.01 to 0.1 µM | C=CC(=O)N1CC[C@@H](n2nc(-c3ccc(Oc4cccc(OC)c4C)cc3)c3cnccc32)C1 [Compound 59, (R)-1-(3-(3-(4-(3-methoxy-2-methylphenoxy)phenyl)-1H-pyrazolo[4,3-c]pyridin-1-yl)pyrrolidin-1-yl)prop-2-en-1-one]
0.01 to 0.1 µM | C=CC(=O)N1CC[C@@H](n2nc(-c3ccc(Oc4cccc(Cl)c4C)cc3)c3cnccc32)C1 [Compound 60, (R)-1-(3-(3-(4-(3-chloro-2-methylphenoxy)phenyl)-1H-pyrazolo[4,3-c]pyridin-1-yl)pyrrolidin-1-yl)prop-2-en-1-one]
0.01 to 0.1 µM | C=CC(=O)N1CCC[C@@H](n2nc(-c3ccc(Oc4cccc(OC)c4)cc3)c3cnccc32)C1 [Compound 65, (R)-1-(3-(3-(4-(3-methoxyphenoxy)phenyl)-1H-pyrazolo[4,3-c]pyridin-1-yl)piperidin-1-yl)prop-2-en-1-one]
< 0.01 µM | C=CC(=O)N1CC[C@@H](n2nc(-c3ccc(Oc4ccccc4)cc3)c3cncc(F)c32)C1 [Compound 66]
< 0.01 µM | C=CC(=O)N1CC[C@@H](n2nc(-c3ccc(Oc4cccc(OC)c4F)cc3)c3cncc(C(F)F)c32)C1 [Compound 67, (R)-1-(3-(7-(difluoromethyl)-3-(4-(2-fluoro-3-melhoxyphenoxy)phenyl)-1H-pyrazolo[4,3-c]pyridin-1-yl)pyrrolidin-1-yl)prop-2-en-1-one]
< 0.01 µM | C=CC(=O)N1CC[C@@H](n2nc(-c3ccc(Oc4cccc(OC)c4Cl)cc3)c3cncc(F)c32)C1 [Compound 68, (R)-1-(3-(3-(4-(2-chloro-3-methoxyphenoxy)phenyl)-7-fluoro-1H-pyrazolo [4,3-c]pyridin-1-yl)pyrrolidin-1-yl)prop-2-en-1-one]
< 0.01 µM | C=CC(=O)N1CCC[C@@H](n2nc(-c3ccc(Oc4cccc(OC)c4F)cc3)c3cncc(F)c32)C1 [Compound 70, (R)-1-(3-(7-fluoro-3-(4-(2-fluoro-3-methoxyphenoxy)phenyl)-1H-pyrazolo[4,3-c]pyridin-1-yl)piperidin-1-yl)prop-2-en-1-one]
0.01 to 0.1 µM | C=CC(=O)N1CCC[C@@H](n2nc(-c3ccc(Oc4cccc(OC)c4F)cc3)c3cncc(C(F)F)c32)C1 [Compound 72, (R)-1-(3-(7-(difluoromethyl)-3-(4-(2-fluoro-3-methoxyphenoxy)phenyl)-1H-pyrazolo[4,3-c]pyridin-1-yl)piperidin-1-yl)prop-2-en-1-one]
0.1 to 1 µM | COc1cccc(Oc2ccc(-c3nn([C@@H]4CCCN(C(=O)C5CC6(C5)CN(S(=O)(=O)c5ccc(C)cc5)C6)C4)c4c(OC)cncc34)cc2)c1F [Compound 74, (R)-(3-(3-(4-(2-fluoro-3-methoxyphenoxy)phenyl)-7-methoxy-1H-pyrazolo [4,3-c]pyridin-1-yl)piperidin-1-yl)(2-tosyl-2-azaspiro[3.3]heptan-6-yl)methanone]
< 0.01 µM | C=CC(=O)N1CCC[C@@H](n2nc(-c3ccc(Oc4cccc(OC)c4F)cc3)c3cncc(O)c32)C1 [Compound 82, (R)-1-(3-(3-(4-(2-fluoro-3-methoxyphenoxy)phenyl)-7-hydroxy-1H-pyrazolo[4,3-c]pyridin-1-yl)piperidin-1-yl)prop-2-en-1-one]
0.01 to 0.1 µM | C=CC(=O)N1CCC[C@@H](n2nc(-c3ccc(Oc4cccc(OC)c4F)cc3)c3cncc(OCCN)c32)C1 [Compound 87, (R)-1-(3-(7-(2-aminoethoxy)-3-(4-(2-fluoro-3-methoxyphenoxy)phenyl)-1H-pyrazolo[4,3-c]pyridin-1-yl)piperidin-1-yl)prop-2-en-1-one]
0.01 to 0.1 µM | C=CC(=O)N1CCC[C@@H](n2nc(-c3ccc(Oc4cccc(OC)c4OCCC)cc3)c3cncc(OCCC)c32)C1 [Compound 88, (R)-1-(3-(3-(4-(3-methoxy-2-propoxyphenoxy)phenyl)-7-propoxy-1H-pyrazolo[4,3-c]pyridin-1-yl)piperidin-1-yl)prop-2-en-1-one]
0.01 to 0.1 µM | COc1cccc(Oc2ccc(-c3nn([C@@H]4CCCN(C(=O)/C(C#N)=C/C(C)(C)C)C4)c4c(OC)cncc34)cc2)c1F [Compound 90, (R,E)-2-(3-(3-(4-(2-fluoro-3-methoxyphenoxy)phenyl)-7-methoxy-1H-pyrazolo[4,3-c]pyridin-1-yl)piperidine-1-carbonyl)-4,4-dimethylpent-2-enenitrile]
0.01 to 0.1 µM | COc1cccc(Oc2ccc(-c3nn(CC4CCCN4C(=O)/C(C#N)=C/C(C)(C)C)c4c(OC)cncc34)cc2)c1F (stereo not shown) [Compound 92, (E)-2-(2-((3-(4-(2-fluoro-3-methoxyphenoxy)phenyl)-7-methoxy-1H-pyrazolo[4,3-c]pyridin-1-yl)methyl)pyrrolidine-1-carbonyl)-4,4-dimethylpent-2-enenitrile]
< 0.01 µM | C=CC(=O)N1CCC[C@@H](n2nc(-c3ccc(Oc4cccc(OC)c4F)cc3)c3cncc(OCCN(C)C)c32)C1 [Compound 93, (R)-1-(3-(7-(2-(dimethylamino)ethoxy)-3-(4-(2-fluoro-3-methoxyphenoxy)phenyl)-1H-pyrazolo[4,3-c]pyridin-1-yl)piperidin-1-yl)prop-2-en-1-one]
0.01 to 0.1 µM | CC#CC(=O)N1CCC[C@@H](n2nc(-c3ccc(Oc4cccc(OC)c4F)cc3)c3cncc(OCCN(C)C)c32)C1 [Compound 94, (R)-1-(3-(7-(2-(dimethylamino)ethoxy)-3-(4-(2-fluoro-3-methoxyphenoxy)phenyl)-1H-pyrazolo[4,3-c]pyridin-1-yl)piperidin-1-yl)but-2-yn-1-one]
0.01 to 0.1 µM | C=CC(=O)N1CCC[C@H](n2nc(-c3ccc(C(=C)c4ccccc4)cc3)c3cnccc32)C1 [Compound 95, (S)-1-(3-(3-(4-(1-phenylvinyl)phenyl)-1H-pyrazolo [4,3-c]pyridin-1-yl)piperidin-1-yl)prop-2-en-1-one]
0.01 to 0.1 µM | C=CC(=O)N1CCC[C@@H](n2nc(-c3ccc(Oc4cccc(OC)c4F)cc3)c3cncc(OC(C)C)c32)C1 [Compound 96, (R)-1-(3-(3-(4-(2-fluoro-3-methoxyphenoxy)phenyl)-7-isopropoxy-1H-pyrazolo[4,3-c]pyridin-1-yl)piperidin-1-yl)prop-2-en-1-one]
0.01 to 0.1 µM | C=CC(=O)N1CC[C@@H](n2nc(-c3ccc(OCc4ccccc4F)cc3)c3cnccc32)C1 [Compound 100, (R)-1-(3-(3-(4-((2-fluorobenzyl)oxy)phenyl)-1H-pyrazolo[4,3-c]pyridin-1-yl)pyrrolidin-1-yl)prop-2-en-1-one]

Compound | IC50
C=CC(=O)N1CCC[C@@H](n2nc(-c3ccc(Oc4cccc(OC)c4F)cc3)c3cncc(OCCCC)c32)C1 [Compound 76, (R)-1-(3-(7-butoxy-3-(4-(2-fluoro-3-methoxyphenoxy)phenyl)-1H-pyrazolo[4,3-c]pyridin-1-yl)piperidin-1-yl)prop-2-en-1-one] | < 0.01 µM
CCC(=O)N1CCC[C@@H](n2nc(-c3ccc(Oc4cccc(OC)c4F)cc3)c3cncc(OC)c32)C1 [Compound 89, (R)-1-(3-(3-(4-(2-fluoro-3-methoxyphenoxy)phenyl)-7-methoxy-1H-pyrazolo[4,3-c]pyridin-1-yl)piperidin-1-yl)propan-1-one] | 0.1 to 1 µM
